Test results published in PubChem BioAssay (NCI).
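How tested: cells in 96-well plates exposed to compound for 48 hours at five concentrations. TGI denotes the concentration required for complete inhibition of growth.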

Legend:
Test in all cases: NCI-60 cell line screen, 48 h
NCI-H226 lung = test system: NCI-H226 lung
SW-620 colon = test system: SW-620 colon
MDA-N = test system: MDA-N
TK-10 renal = test system: TK-10 renal
HT29 colon = test system: HT29 colon
HOP-62 NSCLC = test system: HOP-62 NSCLC
LOX IMVI melanoma = test system: LOX IMVI melanoma
M14 melanoma = test system: M14 melanoma
SF-295 CNS = test system: SF-295 CNS
U251 CNS = test system: U251 CNS
RXF 393 renal = test system: RXF 393 renal
A498 renal = test system: A498 renal
SNB-19 CNS = test system: SNB-19 CNS
COLO 205 colon = test system: COLO 205 colon
NCI-H522 lung = test system: NCI-H522 lung
DU-145 prostate = test system: DU-145 prostate
SN12C renal = test system: SN12C renal
HCT-116 colon = test system: HCT-116 colon
OVCAR-4 ovarian = test system: OVCAR-4 ovarian
786-0 renal = test system: 786-0 renal
A549 NSCLC = test system: A549 NSCLC
ACHN renal = test system: ACHN renal
MOLT-4 leukemia = test system: MOLT-4 leukemia
MCF7 breast = test system: MCF7 breast
NCI/ADR-RES ovarian = test system: NCI/ADR-RES ovarian
SF-268 CNS = test system: SF-268 CNS
SK-MEL-28 melanoma = test system: SK-MEL-28 melanoma
HS 578T breast = test system: HS 578T breast
CCRF-CEM leukemia = test system: CCRF-CEM leukemia
T-47D breast = test system: T-47D breast
NCI-H23 lung = test system: NCI-H23 lung
BT-549 breast = test system: BT-549 breast
SR leukemia = test system: SR leukemia
OVCAR-8 ovarian = test system: OVCAR-8 ovarian
HOP-92 NSCLC = test system: HOP-92 NSCLC
OVCAR-3 ovarian = test system: OVCAR-3 ovarian
UACC-62 melanoma = test system: UACC-62 melanoma
SK-OV-3 ovarian = test system: SK-OV-3 ovarian
MDA-MB-435 = test system: MDA-MB-435
RPMI-8226 leukemia = test system: RPMI-8226 leukemia
PC-3 prostate = test system: PC-3 prostate
SK-MEL-5 melanoma = test system: SK-MEL-5 melanoma
NCI-H460 lung = test system: NCI-H460 lung
KM12 colon = test system: KM12 colon
OVCAR-5 ovarian = test system: OVCAR-5 ovarian
UO-31 renal = test system: UO-31 renal
K-562 leukemia = test system: K-562 leukemia
HCC-2998 colon = test system: HCC-2998 colon
HL-60(TB) leukemia = test system: HL-60(TB) leukemia
SF-539 CNS = test system: SF-539 CNS
IGROV1 ovarian = test system: IGROV1 ovarian
SNB-75 CNS = test system: SNB-75 CNS
MALME-3M melanoma = test system: MALME-3M melanoma
MDA-MB-231 breast = test system: MDA-MB-231 breast
UACC-257 melanoma = test system: UACC-257 melanoma
EKVX NSCLC = test system: EKVX NSCLC
HCT-15 colon = test system: HCT-15 colon
CAKI-1 renal = test system: CAKI-1 renal
SK-MEL-2 melanoma = test system: SK-MEL-2 melanoma

Measured: TGI

COC(NC(=O)Nc1ccccc1C)(C(F)(F)F)C(F)(F)F
not listed: MALME-3M melanoma | MDA-MB-231 breast | UACC-257 melanoma | EKVX NSCLC | HCT-15 colon | CAKI-1 renal | SK-MEL-2 melanoma
> 100 µM: all other assays above

O=c1[nH]c(=O)n(C2OC(CO)C(O)C2O)cc1OCCCc1ccccc1 (stereo not drawn)
not listed: U251 CNS | NCI-H522 lung | BT-549 breast | HOP-92 NSCLC | RPMI-8226 leukemia | UO-31 renal | K-562 leukemia | SNB-75 CNS
> 100 µM: all other assays above
